Results reported in patent US20120045528A1, “USE OF N20 GAS FOR TREATING CHRONIC PAIN” (priority 2009, published 2012).
“Also recorded” adds a separate entry of the source. Like-named read-outs stand apart in the source and are kept apart here.

Tests used:
[1] = tested on: neuropathic rat (sciatic nerve constriction, CCI); assay: Nociceptive threshold by vocalization test to a mechanical stimulus (Randall-Selitto) in rats with mononeuropathy from sciatic nerve constriction (CCI); format: in vivo, male Sprague-Dawley rats
Description: A mononeuropathy is induced in male Sprague-Dawley rats (8 per group) by sciatic nerve constriction. More specifically, on D0, the rats are anesthetized with halothane and the sciatic nerve (injured hind paw side) is prepared using chromic catgut, 4 filament. Neuropathic pain lasting more than 40 days is thus induced.
On D7, the rats are placed in a hermetic chamber where they will inhale, for 75 minutes, the test gas mixture or medical air in the control rats (Sham). Repeated exposures to the mixtures take place on D7, D8, and D9.
Other rats are subjected to comparative treatments with conventional painkilling products, namely ketamine (3×10 mg/kg, sc) and morphine (1 mg/kg, sc).
The nociceptive threshold is then measured via a vocalization test in response to a mechanical stimulus (Randall-Selitto).
The data obtained per measurement are expressed as mean (±standard deviation). The level of significance is set starting from P<0.05.

human beings = conditions: cited from earlier work
[2] = morphine 1 mg/kg sc, neuropathic rat
[3] = N2O concentration 5-25% (vol. %)
[4] = N2O concentration 26-45% (vol. %)
[5] = N2O concentration 45-65% (vol. %)

CNC1(c2ccccc2Cl)CCCCC1=O (stereo not shown) [ketamine]
duration of anti-hyperalgesic effect ([1]; ketamine 3x10 mg/kg sc, neuropathic rat): ≤ 2 days

O=C1CC[C@@]2(O)[C@H]3Cc4ccc(O)c5c4[C@@]2(CCN3CC2CC2)[C@H]1O5 [naltrexone]
effect on the anti-sensitization effect of 50% nitrous oxide on the following days ([1]; naltrexone given to block the analgesic effect of 50% nitrous oxide on D7): does not modify

CN1CC[C@]23c4c5ccc(O)c4O[C@H]2[C@@H](O)C=C[C@H]3[C@H]1C5 [morphine]
duration of analgesic effect ([1]; morphine 1 mg/kg sc, D14, neuropathic rat): 30 min | delayed effect (following days) / anti-hyperalgesic long-term effect [1, 2]: without a delayed effect; also recorded: without any anti-hyperalgesic long-term effect | duration of effect following administration (in words) [1, 2]: limited to a few minutes

[N-]=[N+]=O [nitrous oxide]
Amnesia (human beings; [3]): none | Analgesia (human beings; [3]): none | Contact (human beings; [3]): present | Psychic effects (human beings; [3]): slight | Amnesia (human beings; [4]): slight | Analgesia (human beings; [4]): weak | Contact (human beings; [4]): present | Psychic effects (human beings; [4]): drunkenness | Amnesia (human beings; [5]): complete | Analgesia (human beings; [5]): moderate | Contact (human beings; [5]): present | Psychic effects (human beings; [5]): drowsiness | Psychic effects, Amnesia, Analgesia, Contact (human beings; N2O concentration 66-85% (vol. %)): Patient unconscious | duration of sustained reduction of chronic pain of neuropathic type ([1]; rat, in vivo): > 1 month
